# Measured values: ChEMBL document CHEMBL3045030, “Insect antifeedants from tropical plants II: structure of zumsin” (2002)
# Experiments:
# Type in all cases: functional
# Pectinophora gossypiella [1] = assay: Antifeedant activity against second-instar larvae of Pectinophora gossypiella (pink bollworm) in cotton glandless leaves assessed as 95% protection of host plant substrate after 48 hr
# Pectinophora gossypiella [2] = assay: Antifeedant activity against second-instar larvae of Pectinophora gossypiella (pink bollworm) in cotton glandless leaves assessed as 50% protection of host plant substrate after 48 hr
# Spodoptera frugiperda [3] = assay: Antifeedant activity against second-instar larvae of Spodoptera frugiperda (fall armyworm) in cotton glandless leaves assessed as 50% protection of host plant substrate after 48 hr
# Spodoptera frugiperda [4] = assay: Antifeedant activity against second-instar larvae of Spodoptera frugiperda (fall armyworm) in cotton glandless leaves assessed as 95% protection of host plant substrate after 48 hr
smiles,measurement,setting,value
CC(=O)O[C@@H]1[C@@H]2[C@@]34CC(=O)C[C@@H]3OC(C)(C)[C@@H]4CC(=O)[C@@]2(C)[C@@]23O[C@@H]2C[C@H](c2ccoc2)[C@]3(C)[C@H]1OC(C)=O [ZUMSIN],PC95,Pectinophora gossypiella [1],8 microg/cm2
same,PC50,Pectinophora gossypiella [2],1 microg/cm2
same,PC50,Spodoptera frugiperda [3],2 microg/cm2
same,PC95,Spodoptera frugiperda [4],16 microg/cm2
